Source: patent US20260183269A1, “PHARMACEUTICAL COMPOSITION FOR PREVENTION OR TREATMENT OF DRUG-RELATED PEPTIC ULCER COMPRISING ZASTAPRAZAN OR PHARMACEUTICALLY ACCEPTABLE SALT THEREOF” (priority 2022, published 2026)

Legend:
[1] = test system: rat gastric damage model induced by naproxen; experiment: Antiulcer activity in naproxen-induced acute peptic ulcer (gastric damage) rat model; format: in vivo, Male Sprague-Dawley (SD) rat
Procedure: [table] […] The dose for each individual was converted based on the body weight before administration, and is administered orally in a dosage of 5 ml per kg of body weight. […] Administration frequency and administration period: Once a day for five days (a total of 5 times) After the test, the gastric damage by the test substance was evaluated using the ulcer index. […] The removed stomach was incised along the greater curvature, the contents are removed, and the incised stomach was washed cleanly with saline solution, spread out well with a cotton swab, fixed with pins, and then photographed. The gastric damage area and the total stomach area were measured from the photographed stomach using an image program (Leica Application Suite V4), and the ulcer index was calculated as Ulcer index (%)=Damage area (mm^2)/Total area (mm^2)×100. The experimental results were statistically analyzed through Mann-Whitney analysis using a commercial statistical processing program (IBM SPSS Statistics version 25.0).

[2] = Clinical PK interaction, PART 1: zastaprazan and aceclofenac in healthy subjects; format: in vivo, human (healthy subjects); details: for Cmax / AUC(0-t): human, oral; for Cmax: n = 22, plasma, mean ± SD; for AUC(0-t): plasma, n = 22, mean ± SD
Procedure: (§1) Zastaprazan may be used not only for acid-related gastric diseases but also for preventing gastric damage caused by NSAIDs.
(§2) • JP-1366, 20 mg 2 capsules (zastaprazan citrate salt 40 mg)
• Aertal tablet (aceclofenac 100 mg)
Subjects who volunteered for PART 1 were assigned a subject number on the day before the first clinical trial drug administration (−1 d) of Period 1, and then administered one aceclofenac tablet on 1 d of Period 1, administered two JP-1366 capsules on 4 d to 8 d of Period 2, and co-administered two JP-1366 capsules and one aceclofenac tablet on 9 d of Period 3. Blood samples were collected from each subject at a designated time for the PK evaluation of the clinical trial drug, and all subjects underwent safety evaluation according to the designated schedule.
(§3) Blood samples were collected at designated times for the PK evaluation of zastaprazan (JP-1366).

[3] = Clinical PK interaction, PART 2: zastaprazan and meloxicam in healthy subjects; format: in vivo, human (healthy subjects)
Procedure: as §1, §2
• Mobic capsule 15 mg (meloxicam 15 mg)
Subjects who volunteered for PART 2 were assigned a subject number on the day before the first clinical trial drug administration (−1 d) of Period 1, and then administered two JP-1366 capsules on 1 d to 5 d of Period 1, administered one meloxicam capsule on 15 d to 19 d of Period 2, and co-administered two JP-1366 capsules and one meloxicam capsule on 22 d to 26 d of Period 3. Blood samples were collected from each subject at a designated time for the PK evaluation of the clinical trial drug, and all subjects underwent safety evaluation according to the designated schedule.
as §3

clinical = format: in vivo, human (healthy subjects)
Procedure: as §2
Blood samples were collected from each subject at a designated time for the PK evaluation of the clinical trial drug, and all subjects underwent safety evaluation according to the designated schedule.
as §3

[4] = Safety evaluation of zastaprazan with aceclofenac, meloxicam, or naproxen in healthy subjects; format: in vivo, human (healthy subjects); details: zastaprazan 40 mg alone and co-administered with aceclofenac 100 mg, meloxicam 15 mg or naproxen 500 mg
Source text: Zastaprazan may be used not only for acid-related gastric diseases but also for preventing gastric damage caused by NSAIDs. […] Blood samples were collected from each subject at a designated time for the PK evaluation of the clinical trial drug, and all subjects underwent safety evaluation according to the designated schedule. All subjects who completed the clinical trial underwent a post-study visit on 14 d to 20 d, including vital sign measurement, physical examination, adverse reaction check, confirmation of prior/concurrent medication, clinical laboratory tests, and electrocardiography. […] Blood samples were collected from each subject at a designated time for the PK evaluation of the clinical trial drug, and all subjects underwent safety evaluation according to the designated schedule. All subjects who completed the clinical trial underwent a post-study visit on 31 d to 37 d, including vital sign measurement, physical examination, adverse reaction check, confirmation of prior/concurrent medication, clinical laboratory tests, and electrocardiography. […] Blood samples were collected from each subject at a designated time for the PK evaluation of the clinical trial drug, and all subjects underwent safety evaluation according to the designated schedule. […]

For Cc1cccc(C)c1CNc1cc(C(=O)N2CCC2)cn2c(C)c(C)nc12.O=C(O)CC(O)(CC(=O)O)C(=O)O [Zastaprazan, azetidin-1-yl{8-[(2,6-dimethylbenzyl)amino]-2,3-dimethylimidazo[1,2-a]pyridin-6-yl}methanone citrate salt], the “ulcer area (antiulcer activity), FIG. 1” value ([1]; JP-1366 2 mg/kg oral once a day for five days with naproxen 40 mg/kg, non-fasting rats, stomach removed 4 h after last naproxen) was “rapid decrease in the ulcer area”, the “antiulcer efficacy compared with esomeprazole” value ([1]; JP-1366 2 mg/kg vs esomeprazole 2 mg/kg oral, once a day for five days with naproxen 40 mg/kg) was “superior to that of the control substance, esomeprazole” and the “geometric mean ratio (GMR) [90% CI] of zastaprazan AUCT,SS” value ([2]; Z+A to Z) was 0.9490 (0.9096 to 0.9902). The “geometric mean ratio (GMR) [90% CI] of zastaprazan Cmax,SS” value ([2]; Z+A to Z) was 1.0868 (0.9554 to 1.2362), the Cmax ([2]; Z (zastaprazan 40 mg alone), read-out: zastaprazan Cmax, SS) was 242 ± 84 ng/mL and the AUC(0-t) ([2]; Z (zastaprazan 40 mg alone), read-out: zastaprazan AUCT, SS) was 1540 ± 724 ng·h/mL. The AUC(0-t) ([2]; Z + A (zastaprazan 40 mg and aceclofenac 100 mg), read-out: zastaprazan AUCT, SS) was 1440 ± 627 ng·h/mL, the “PK interaction between zastaprazan and aceclofenac” value ([2]; summary of PART 1) was “No clinically significant PK interactions” and the “GMR [90% CI] of zastaprazan AUCT,SS” value ([3]; human, in vivo) was 1.3332 (1.1494 to 1.5463). For the same compound, the AUC(0-t) ([3]; human, in vivo, 40 mg) was 1120 ± 534 ng·h/mL, the Cmax ([3]; human, in vivo, 40 mg) was 237 ± 72.8 ng/mL and the “PK interaction between zastaprazan and meloxicam” value ([3]; summary of PART 2) was “No clinically significant PK interactions”. The AUC(0-t) (clinical; human, in vivo, oral, Z (zastaprazan 40 mg alone), n = 22, mean ± SD, read-out: zastaprazan AUCT, SS) was 1380 ± 695 ng·h/mL, the Cmax (clinical; human, oral, Z (zastaprazan 40 mg alone), n = 22, plasma, mean ± SD, read-out: zastaprazan Cmax, SS) was 264 ± 88.5 ng/mL and the “PK interaction between zastaprazan and naproxen” value (clinical; summary of PART 3) was “No clinically significant PK interactions”. The safety [4] was “no safety concerns”.

Compound O=C(O)COC(=O)Cc1ccccc1Nc1c(Cl)cccc1Cl [Aceclofenac, aceclofenac, reference compound] has a Cmax ([2]; A (aceclofenac 100 mg alone), read-out: aceclofenac Cmax, SS) of 10100 ± 3160 ng/mL, a Cmax ([2]; Z + A (zastaprazan 40 mg and aceclofenac 100 mg), read-out: aceclofenac Cmax, SS) of 11800 ± 2560 ng/mL and an AUC(0-t) ([2]; A (aceclofenac 100 mg alone), read-out: aceclofenac AUCT, SS) of 20400 ± 4870 ng·h/mL. The AUC(0-t) ([2]; Z + A (zastaprazan 40 mg and aceclofenac 100 mg), read-out: aceclofenac AUCT, SS) was 20800 ± 3840 ng·h/mL.

For Cc1cnc(NC(=O)C2=C(O)c3ccccc3S(=O)(=O)N2C)s1 [Meloxicam, meloxicam, reference compound], the AUC(0-t) ([3]; human, in vivo, oral, M (meloxicam 15 mg alone), n = 22, mean ± SD, read-out: meloxicam AUCT, SS) was 41800 ± 16400 ng·h/mL, the AUC(0-t) ([3]; human, in vivo, oral, Z + M (zastaprazan 40 mg and meloxicam 15 mg), n = 22, mean ± SD, read-out: meloxicam AUCT, SS) was 44000 ± 18800 ng·h/mL and the Cmax ([3]; human, oral, M (meloxicam 15 mg alone), n = 22, plasma, mean ± SD, read-out: meloxicam Cmax, SS) was 2480 ± 880 ng/mL. It also gave a Cmax ([3]; human, oral, Z + M (zastaprazan 40 mg and meloxicam 15 mg), n = 22, plasma, mean ± SD, read-out: meloxicam Cmax, SS) of 2640 ± 920 ng/mL.
